Test results reported in US9242981B2, “Fused pyrazole derivatives as novel ERK inhibitors” (Merck Sharp & Dohme Corp., priority 2010, dated 2016).

Each compound was assayed against Mouse ERK2 protein (Mus musculus (Mouse), UniProt P63085) (assay: Coupled MEK1/ERK2 IMAP assay or Active ERK2 IMAP assay). Conditions: Table 1, class symbols, 30 μM ATP.
Assay type: biochemical
Procedure: 14 μl of kinase buffer (10 mM Tris.HCl pH 7.2, 10 mM MgCl2, 0.01% Tween-20, 1 mM DTT) containing 0.4 ng unphosphorylated Mouse ERK2 protein is added to each well of a black 384-well assay plate. […] DMSO concentration during initial incubation is 6.7%. […] DMSO concentration during ERK activation was 4%. After one hour, reactions are terminated by addition of 60 μl IMAP detections beads in binding buffer (Molecular Devices). Binding is allowed to equilibrate for 30 minutes before reading the plate on an LJL Analyst Fluorescence Polarization plate reader.
Activated ERK2 activity was also determined in the IMAP assay format using the procedure outlined above. […] Reactions proceeded for 30 minutes before termination by addition of […] IMAP detection beads in binding buffer. Plates were read as above after 30 minute binding equilibration.

Chain of Mouse ERK2 protein (P63085 whole entry): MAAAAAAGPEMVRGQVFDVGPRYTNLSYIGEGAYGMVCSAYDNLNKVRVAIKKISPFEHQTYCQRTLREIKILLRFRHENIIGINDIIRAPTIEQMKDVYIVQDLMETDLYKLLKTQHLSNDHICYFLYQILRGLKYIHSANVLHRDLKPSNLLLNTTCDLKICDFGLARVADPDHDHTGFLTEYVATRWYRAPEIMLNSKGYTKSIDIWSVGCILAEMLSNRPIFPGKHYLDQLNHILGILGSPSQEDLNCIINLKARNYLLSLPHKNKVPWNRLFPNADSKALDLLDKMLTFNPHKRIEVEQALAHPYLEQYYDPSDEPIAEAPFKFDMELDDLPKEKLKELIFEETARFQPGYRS

Question: `Cc1ccc(C2CN(C)CC2NC(=O)N2CCc3[nH]nc(-c4ccncc4)c3C2)cc1` (racemic) [Compound 159, 1,4,6,7-tetrahydro-N-[trans-1 methyl-4-(4-methylphenyl)-3-pyrrrolidinyl]-3-(4-pyridinyl)-5H-pyrazolo[4,3-c]pyridine-5-carboxamide] was tested. Which IC50 did it give?
Answer: The IC50 was less than 20 nM.

Question: For `COc1cccc(OC)c1CN1CCC[C@@H](NC(=O)N2CCc3[nH]nc(-c4ccncc4)c3C2)C1` [Compound 73], which IC50 is on record?
Answer: Its IC50 is 101 to 1000 nM.

Question: With `Cc1nc(CC(=O)N2CCc3[nH]nc(-c4ccncc4)c3C2)c(C)s1` [Compound 11, 5-[(2,5-dimethyl-4-thiazolyl)acetyl]-4,5,6,7-tetrahydro-3-(4-pyridinyl)-1H-pyrazolo[4,3-c]pyridine] as the compound, how does the IC50 read?
Answer: Its IC50 is 1000 to 100000 nM.

Question: How did the IC50 turn out when `CCn1cc(Cl)c(NC(=O)N2CCc3[nH]nc(-c4ccncc4)c3C2)n1` [Compound 42, N-(4-chloro-1-ethyl-1H-pyrazol-3-yl)-1,4,6,7-tetrahydro-3-(4-pyridinyl)-5H-pyrazolo[4,3-c]pyridine-5-carboxamide] was run?
Answer: Its IC50 is 1000 to 100000 nM.

Question: How did the IC50 turn out when `COc1ncccc1NC(=O)C1(C)CCc2[nH]nc(-c3ccncc3)c2C1` (centres unmarked) [Compound 18, 4,5,6,7-tetrahydro-N-(2-methoxy-3-pyridinyl)-5-methyl-3-(4-pyridinyl)-1H-indazole-5-carboxamide] was run?
Answer: The IC50 was 1000 to 100000 nM.

Question: With `O=C(N1CCc2[nH]nc(-c3ccncc3)c2C1)C1(c2ccc(Cl)cc2Cl)CC1` [Compound 28, 5-[[1-(2,4-dichlorophenyl)-cylcopropyl]carbonyl]-4,5,6,7-tetrahydro-3-(4-pyridinyl)-1H-pyrazolo[4,3-c]pyridine] as the compound, how does the IC50 read?
Answer: Its IC50 is 101 to 1000 nM.

Question: `CN1C[C@@H](NC(=O)N2CCc3[nH]nc(-c4ccc5c(c4)CCO5)c3C2)[C@H](c2ccccc2C(F)(F)F)C1` (racemic) [Compound 153, 3-(2,3-dihydro-5-benzofuranyl)-1,4,6,7-tetrahydro-N-[trans-1-methyl-4-[2-(trifluoromethyl)phenyl]-3-pyrrolidinyl]-5H-pyrazolo[4,3-c]pyridine-5-carboxamide] was tested. Which IC50 did it give?
Answer: Its IC50 is less than 20 nM.

Question: For `COc1cccc(F)c1CN1CCC(F)C(NC(=O)N2CCc3[nH]nc(-c4ccnc(C)c4)c3C2)C1` (centres unmarked) [Compound 135, N-[4-fluoro-1-[(2-fluoro-6-methoxyphenyl)methyl]-3-piperidinyl]-1,4,6,7-tetrahydro-3-(2-methyl-4-pyridinyl)-5H-pyrazolo[4,3-c]pyridine-5-carboxamide], which IC50 is on record?
Answer: Its IC50 is less than 20 nM.

Question: For `O=C(N[C@@H]1CCCN(Cc2c(F)cccc2Cl)C1)N1CCc2[nH]nc(-c3ccncc3)c2C1` [Compound 66, N-[1-[(2-chloro-6-fluorophenyl)methyl]-3(R)-piperidinyl]-1,4,6,7-tetrahydro-3-(4-pyridinyl)-5H-pyrazolo[4,3-c]pyridine-5-carboxamide], which IC50 is on record?
Answer: Its IC50 is less than 20 nM.

Question: For `CC(C)(C)OC(=O)N1C[C@@H](NC(=O)N2CCc3[nH]nc(-c4ccncc4)c3C2)[C@H](c2cccc(-c3ccccc3)c2)C1` (racemic) [Compound 165, 1,1-dimethylethyl trans-3-[1,1′-biphenyl]-3-yl-4-[[[1,4,6,7-tetrahydro-3-(4-pyridinyl)-5H-pyrazolo[4,3-c]pyridin-5-yl]carbonyl]amino]-1-pyrrolidinecarboxylate], which IC50 is on record?
Answer: The IC50 was 101 to 1000 nM.

Question: With `Cc1cc(-c2n[nH]c3c2CN(C(=O)NC2CC(C)CN(Cc4ccc5ccccc5n4)C2)CC3)ccn1` (stereo not drawn) [Compound 104, 1,4,6,7-tetrahydro-3-(2-methyl-4-pyridinyl)-N-[5-methyl-l-(2-quinolinylmethyl)-3-piperidinyl]-5H-pyrazolo[4,3-c]pyridine-5-carboxamide] as the compound, how does the IC50 read?
Answer: The IC50 was 21 to 100 nM.

Question: `CC1(C(=O)N[C@H]2CNC[C@@H]2c2ccccc2)CCc2[nH]nc(-c3ccncc3)c2C1` (mixture of isomers) [Compound 4, 4,5,6,7-tetrahydro-5-methyl-N-(trans-4-phenyl-3-pyrrolidinyl)-3-(4-pyridinyl)-1H-indazole-5-carboxamide (mixture of isomers)] was tested. Which IC50 did it give?
Answer: Its IC50 is 101 to 1000 nM.

Question: With `CC1(C(=O)Nc2ccccc2OCC2CCCO2)CCc2[nH]nc(-c3ccncc3)c2C1` (centres unmarked) [Compound 20, 4,5,6,7-tetrahydro-5-methyl-3-(4-pyridinyl]-N-[2 [(tetrahydro-2-furanyl)-methoxy]phenyl]-1H-indazole-5-carboxamide] as the compound, how does the IC50 read?
Answer: Its IC50 is 1000 to 100000 nM.

Question: For `Cc1nc2cc(-c3n[nH]c4c3CN(C(=O)N[C@@H]3CCCN(Cc5csc6ccccc56)C3)CC4)ccc2o1` [Compound 152, N-[1-(benzo[b]thien-3-ylmethyl)-3(R)-piperidinyl]-1,4,6,7-tetrahydro-3-(2-methyl-5-benzoxazolyl)-5H-pyrazolo[4,3-c]pyridine-5-carboxamide], which IC50 is on record?
Answer: The IC50 was less than 20 nM.

Question: How did the IC50 turn out when `COC(=O)C1CC(NC(=O)N2CCc3[nH]nc(-c4ccnc(C)c4)c3C2)CN(Cc2c(F)cccc2F)C1` (centres unmarked) [Compound 82, methyl 1-[(2,6-difluorophenyl)methyl]-5-[[[1,4,6,7-tetrahydro-3-(2-methyl-4-pyridinyl)-5H-pyrazolo[4,3-c]pyridin-5-yl]carbonyl]amino]-3-piperidinecarboxylate] was run?
Answer: Its IC50 is 101 to 1000 nM.

Question: For `COc1cccc(F)c1CN1CCC[C@@H](NC(=O)N2CCc3[nH]nc(-c4ccc5sc(C)nc5c4)c3C2)C1` [Compound 186, (R)-N-(1-(2-fluoro-6-methoxybenzyl)piperidin-3-yl)-3-(2-methylbenzo[d]thiazol-5-yl)-6,7-dihydro-1H-pyrazolo[4,3-c]pyridine-5(4H)-carboxamide], which IC50 is on record?
Answer: Its IC50 is 21 to 100 nM.

Question: `O=C(N[C@H]1CNC[C@@H]1c1ccccc1)[C@H]1CCc2[nH]nc(-c3ccc4ncsc4c3)c2C1` (racemic) [Compound 44, 3-(6-benzothiazolyl)-4,5,6,7-tetrahydro-N-(trans-4-phenyl-3-pyrrolidinyl)-1H-indazole-5(S)-carboxamide] was tested. Which IC50 did it give?
Answer: The IC50 was 1000 to 100000 nM.

Question: Which IC50 does the source give for `COc1cccc(F)c1CN1[C@H]2CC[C@H](NC(=O)N3CCc4[nH]nc(-c5ccnc(C)c5)c4C3)[C@@H]1CC2` [Compound 160, N-[endo-8-[(2-fluoro-6-methoxyphenyl)methyl]-8-azabicyclo[3.2.1]oct-2-yl]-1,4,6,7-tetrahydro-3-(2-methyl-4-pyridinyl)-5H-pyrazolo[4,3-c]pyridine-5-carboxamide] here?
Answer: Its IC50 is 101 to 1000 nM.

Question: For `Cc1cc(-c2n[nH]c3c2CN(C(=O)N[C@@H]2CCN(Cc4csc5ccccc45)C2)CC3)ccn1` [Compound 120, N-[1-(benzo[b]thien-3-ylmethyl)-3(R)-pyrrolidinyl]-1,4,6,7-tetrahydro-3-(2-methyl-4-pyridinyl)-5H-pyrazolo[4,3-c]pyridine-5-carboxamide], which IC50 is on record?
Answer: Its IC50 is less than 20 nM.

Question: With `O=C(Cc1ccccc1F)N1CCc2[nH]nc(-c3ccncc3)c2C1` [Compound 24, 5-[(2-fluorophenyl)acetyl]-4,5,6,7-tetrahydro-3-(4-pyridinyl)-1H-pyrazolo[4,3-c]pyridine] as the compound, how does the IC50 read?
Answer: The IC50 was 101 to 1000 nM.

Question: With `COc1cccc(F)c1CN1CC(NC(=O)N2CCc3[nH]nc(-c4ccnc(C)c4)c3C2)CCC1C` (centres unmarked) [Compound 121, N-[1-[(2-fluoro-6-methoxyphenyl)methyl]-6-methyl-3-piperidinyl]-1,4,6,7-tetrahydro-3-(2-methyl-4-pyridinyl)-5H-pyrazolo[4,3-c]pyridine-5-carboxamide] as the compound, how does the IC50 read?
Answer: The IC50 was 21 to 100 nM.

Question: How did the IC50 turn out when `O=C(N[C@@H]1CCCN(Cc2ncc[nH]2)C1)N1CCc2[nH]nc(-c3ccncc3)c2C1` [Compound 63, 1,4,6,7-tetrahydro-N-[1-(1H-imidazoL-2-ylmethyl)-3(R)-piperidinyl]-3-(4-pyridinyl)-5H-pyrazolo[4,3-c]pyridine-5-carboxamide] was run?
Answer: Its IC50 is 101 to 1000 nM.

Question: With `O=C(Cc1ccccc1C(F)(F)F)N1CCc2[nH]nc(-c3ccncc3)c2C1` [Compound 26] as the compound, how does the IC50 read?
Answer: The IC50 was 101 to 1000 nM.

Question: Which IC50 does the source give for `Cn1ccc(CN2CCC[C@@H](NC(=O)N3CCc4[nH]nc(-c5ccncc5)c4C3)C2)n1` [Compound 65, 1,4,6,7-tetrahydro-N-[1-[(1-methyl-1H-pyrazol-3-yl)methyl]-3(R)-piperidinyl]-3-(4-pyridinyl)-5H-pyrazolo[4,3-c]pyridine-5-carboxamide] here?
Answer: Its IC50 is 101 to 1000 nM.

Question: For `Cn1ncc2cc(-c3n[nH]c4c3CN(C(=O)N[C@@H]3CCCN(Cc5c(F)cccc5F)C3)CC4)ccc21` [Compound 134, N-[1-[(2,6-difluorophenyl)-methyl]-3(R)-piperidinyl]-1,4,6,7-tetrahydro-3-(1-methyl-1H-indazol-5-yl)-5H-pyrazolo[4,3-c]pyridine-5-carboxamide], which IC50 is on record?
Answer: The IC50 was 21 to 100 nM.

Question: How did the IC50 turn out when `Cc1nc2cc(-c3n[nH]c4c3CN(C(=O)N[C@@H]3CCCN(Cc5cccc6cnccc56)C3)CC4)ccc2o1` [Compound 142, 1,4,6,7-tetrahydro-N-[1-(5-isoquinolinylmethyl)-3(R)-pipendinyl]-3-(2-methyl-5-benzoxazolyl)-5H-pyrazolo[4,3-c]pyridine-5-carboxamide] was run?
Answer: The IC50 was 101 to 1000 nM.

Question: `O=C(N[C@@H]1CCCN(Cc2c(F)cccc2F)C1)N1CCc2[nH]nc(-c3ccc(-c4ccccc4)nc3)c2C1` [Compound 137, N-[1-[(2,6-difluorophenyl)-methyl]-3(R)-piperidinyl]-1,4,6,7-tetrahydro-3-(6-phenyl-3-pyridinyl)-5H-pyrazolo[4,3-c]pyridine-5-carboxamide] was tested. Which IC50 did it give?
Answer: Its IC50 is 101 to 1000 nM.

Question: `CCn1cc(-c2n[nH]c3c2CN(C(=O)N[C@@H]2CN(C)C[C@H]2c2ccccc2C(F)(F)F)CC3)cn1` (racemic) [Compound 155, 3-(1-ethyl-1H-pyrazol-4-yl)-1,4,6,7-tetrahydro-N-[trans1-methyl-4-[2-(trifluoromethyl)phenyl]-3-pyrrolidinyl]-5H-pyrazolo[4,3-c]pyridine-5-carboxamide] was tested. Which IC50 did it give?
Answer: The IC50 was less than 20 nM.

Same assay, conditions: Table 2, 30 μM ATP

Question: With `CCn1cc(-c2n[nH]c3c2CN(C(=O)NC2CN(C)CC2c2ccccc2C)CC3)cn1` (racemic) [Compound 147, 3-(1-ethyl-1H-pyrazoI-4-yl)-1,4,6,7-tetrahydro-N-ttrans-1-methyl-4-(2-methylphenyl)-3-pyrrolidinyl]-5H-pyrazolo[4,3-c]pyridine-5-carboxamide] as the compound, how does the IC50 read?
Answer: Its IC50 is 1.9 nM.
